The text below walks through data of ChEMBL document CHEMBL1201862, “PubChem BioAssay data set” (2004).

Among the test systems are ACHN; CAKI-1; HCC 2998; HCT-15; HOP-62; HT-29; IGROV-1; M14; MDA-N; Malme-3M; NCI-H522; NCI/ADR-RES; OVCAR-8; SK-OV-3; SN12C; SNB-75; SR; SW-620; UACC-257; UO-31.
What all share (test): inhibition of tumour cell growth, NCI panel, 48 h

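Test compounds were applied to cells in 96-well plates for 48 hours at 5 doses. Abbreviation: GI50, concentration required for 50% inhibition of growth.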 Active and inactive are the calls of the source. No stated cut-off is given here; in the data, active = GI50 up to about 1.1 µM and inactive = higher.

On to `CN(C)c1ncnc2c1ncn2CCn1cnc2c(N(C)C)ncnc21`, for which the GI50 was > 100 µM (inactive) with ACHN; > 100 µM (inactive) with CAKI-1; > 100 µM (inactive) in the assay on HCC 2998; above 100 µM in the assay on HCT-15; > 100 µM (inactive) with HOP-62; > 100 µM (inactive) with HT-29. In addition, the GI50 with IGROV-1, in the assay with M14, in the assay with MDA-N, in the assay on Malme-3M, in the assay on NCI-H522 and in the assay with NCI/ADR-RES was > 100 µM (inactive) each time. Moreover, the GI50 in the assay with OVCAR-8 was > 100 µM (inactive); with SK-OV-3, > 100 µM (inactive); with SN12C it was > 100 µM (inactive); in the assay with SNB-75 it was > 100 µM (inactive); with SR it was 2.28 µM (inactive); in the assay on SW-620, > 100 µM (inactive). Also, the GI50 in the assay on UACC-257 and with UO-31 was > 100 µM (inactive) in each case.
On to `CC(C)S(=O)(=O)ON1C(=O)c2ccc(N(C)C)cc2C1=O`, for which the GI50 is 15.6 µM (inactive) in the assay on ACHN; 5.35 µM (inactive) with CAKI-1; 13.3 µM (inactive) in the assay with HCC 2998; 13.6 µM in the assay with HCT-15; 42.5 µM (inactive) in the assay with HOP-62; 22.8 µM (inactive) with HT-29. Moreover, the GI50 in the assay on IGROV-1 is 20.8 µM (inactive); in the assay on M14, 17.2 µM (inactive); in the assay on MDA-N, 4.01 µM (inactive); in the assay on Malme-3M it was 2.93 µM (inactive); with NCI-H522 it was 1.52 µM (inactive); in the assay on NCI/ADR-RES it was 5.4 µM (inactive). In addition, the GI50 is 2.65 µM (inactive) with OVCAR-8; > 50.7 µM (inactive) in the assay with SK-OV-3; 16.9 µM (inactive) with SN12C; 19.6 µM (inactive) with SNB-75; 2.38 µM (inactive) with SR; 11.4 µM (inactive) in the assay with SW-620. In addition, the GI50 was 20.1 µM (inactive) in the assay with UACC-257 and 18.2 µM (inactive) with UO-31.
With `O=C1c2ccccc2-c2c1c1ccccc1c(=O)n2-c1ccccc1`, the GI50 is 5.09 µM (inactive) in the assay with ACHN; 11.8 µM (inactive) in the assay with CAKI-1; 66.4 µM (inactive) with HCC 2998; 27.9 µM in the assay with HCT-15; 4.26 µM (inactive) with HOP-62; > 31.5 µM (inactive) in the assay with HT-29. The GI50 in the assay with IGROV-1 was 13.8 µM (inactive); in the assay with M14, 47.2 µM (inactive); with MDA-N it was > 79.1 µM (inactive); in the assay on Malme-3M, > 62.5 µM (inactive); in the assay with NCI-H522, 18.2 µM (inactive); in the assay on NCI/ADR-RES it was 5.48 µM (inactive). In addition, the GI50 in the assay with OVCAR-8 is 5.79 µM (inactive); in the assay on SK-OV-3, 13.2 µM (inactive); in the assay on SN12C it was 16.4 µM (inactive); in the assay on SNB-75 it was 13.1 µM (inactive); with SR, > 100 µM (inactive); in the assay on SW-620 it was 35.4 µM (inactive). The GI50 in the assay with UACC-257 is > 82.4 µM (inactive); in the assay with UO-31 it was 5.64 µM (inactive).
For `CN(C1=NS(=O)(=O)N=C(N(C)c2ccccc2)O1)c1ccccc1`, the GI50 in the assay on ACHN was 17.3 µM (inactive); with CAKI-1, 22.1 µM (inactive); with HCC 2998, 20.7 µM (inactive); in the assay with HCT-15, 15.1 µM; in the assay on HOP-62, 22.9 µM (inactive); in the assay with HT-29, 22.9 µM (inactive). The GI50 in the assay on IGROV-1 is 23.3 µM (inactive); in the assay on M14 it was 18.9 µM (inactive); with MDA-N it was 15 µM (inactive); with Malme-3M, 24.2 µM (inactive); in the assay on NCI-H522, 18.5 µM (inactive); in the assay with NCI/ADR-RES it was 21.8 µM (inactive). For the same compound, the GI50 in the assay on OVCAR-8 is 17.4 µM (inactive); in the assay on SK-OV-3, 40.1 µM (inactive); with SN12C, 18.7 µM (inactive); in the assay on SNB-75, 16.7 µM (inactive); in the assay with SR it was 7.06 µM (inactive); with SW-620 it was 14 µM (inactive). The values for the GI50 in the assay with UACC-257 and in the assay with UO-31 were 19.1 µM (inactive) and 21.4 µM (inactive), respectively.
On to `O=C1Nc2ccccc2/C1=C1/Nc2ccccc2/C1=N\OCCNCC(O)C(O)C(O)C(O)CO` (stereo not given), for which the GI50 in the assay with ACHN was > 50 µM (inactive); in the assay on CAKI-1, 38.5 µM (inactive); with HCC 2998, 11.8 µM (inactive); in the assay on HCT-15, above 50 µM; with HOP-62 it was 11.7 µM (inactive); in the assay with HT-29, 16.9 µM (inactive). Besides, the GI50 in the assay with IGROV-1 is 6.62 µM (inactive); in the assay on M14, 20.9 µM (inactive); in the assay with MDA-N it was 9.89 µM (inactive); with Malme-3M, 11.2 µM (inactive); in the assay on NCI-H522, 13.4 µM (inactive); with NCI/ADR-RES, > 50 µM (inactive). The GI50 was 18.5 µM (inactive) with OVCAR-8; 9.66 µM (inactive) with SK-OV-3; 15.2 µM (inactive) with SN12C; 11 µM (inactive) with SNB-75; 9.55 µM (inactive) in the assay with SR; 15.9 µM (inactive) in the assay with SW-620. For the same compound, the GI50 in the assay with UACC-257 is 13.5 µM (inactive); in the assay on UO-31, > 50 µM (inactive).
In the case of `Cc1ccc(S(=O)(=O)N(CC(O)COc2ccccc2)c2ccccc2Cl)cc1` (stereo not given), the GI50 is 16.3 µM (inactive) in the assay on ACHN; 15.5 µM (inactive) with CAKI-1; 19.5 µM (inactive) in the assay with HCC 2998; 15.8 µM in the assay on HCT-15; 20 µM (inactive) in the assay with HOP-62; 17.5 µM (inactive) with HT-29. Also, the GI50 was 12.5 µM (inactive) in the assay on IGROV-1; 16.5 µM (inactive) in the assay with M14; 16.3 µM (inactive) with MDA-N; 14.5 µM (inactive) in the assay on Malme-3M; 12.4 µM (inactive) in the assay on NCI-H522; 16.8 µM (inactive) with NCI/ADR-RES. For the same compound, the GI50 in the assay on OVCAR-8 is 16.3 µM (inactive); in the assay on SK-OV-3 it was 23.8 µM (inactive); in the assay with SN12C, 15 µM (inactive); in the assay with SNB-75, 22.3 µM (inactive); in the assay on SR, 13.9 µM (inactive); in the assay with SW-620, 17.8 µM (inactive). In addition, the results for the GI50 with UACC-257 and with UO-31 were 14.7 µM (inactive) and 12.2 µM (inactive), respectively.
In the case of `O=C1C=CC(=O)c2c(O)c(N(CCCl)CCCl)c(Cl)c(O)c21`, the GI50 was 4.13 µM (inactive) with ACHN; 4.66 µM (inactive) in the assay with CAKI-1; > 8.91 µM (inactive) in the assay on HCC 2998; 5.45 µM in the assay with HCT-15; > 9.48 µM (inactive) in the assay on HOP-62; 5.38 µM (inactive) with HT-29. Further, the GI50 with IGROV-1 is > 6.68 µM (inactive); in the assay on M14, 4.37 µM (inactive); in the assay on MDA-N it was 4.28 µM (inactive); in the assay on Malme-3M, 4.37 µM (inactive); in the assay with NCI-H522, 3.74 µM (inactive); in the assay on NCI/ADR-RES it was 6.89 µM (inactive). The GI50 in the assay on OVCAR-8 is 4.51 µM (inactive); in the assay on SK-OV-3, > 10 µM (inactive); in the assay on SN12C, > 6.68 µM (inactive); with SNB-75, 7.8 µM (inactive); in the assay on SR, 4.51 µM (inactive); in the assay with SW-620, 3.75 µM (inactive). For the same compound, the GI50 with UACC-257 was 3.3 µM (inactive); with UO-31, > 5.75 µM (inactive).
Consider `COC1=CC2(C=CC1=O)CCNC1=C2C(=O)c2nc[nH]c2C1=O` (stereo not given), for which the GI50 in the assay with ACHN is > 100 µM (inactive); with CAKI-1, > 100 µM (inactive); in the assay on HCC 2998, > 100 µM (inactive); in the assay with HCT-15 it was above 100 µM; in the assay with HOP-62 it was > 100 µM (inactive); with HT-29, > 100 µM (inactive). Further, the GI50 with IGROV-1 is > 100 µM (inactive); in the assay on M14, > 100 µM (inactive); in the assay with MDA-N, > 100 µM (inactive); in the assay on Malme-3M it was > 100 µM (inactive); in the assay on NCI-H522, 32.3 µM (inactive); in the assay with NCI/ADR-RES, > 100 µM (inactive). For the same compound, the GI50 in the assay on OVCAR-8, in the assay with SK-OV-3, in the assay on SN12C, in the assay on SNB-75, with SR and in the assay on SW-620 was > 100 µM (inactive) each time. The GI50 with UACC-257 and in the assay on UO-31 was > 100 µM (inactive) each time.
Take `Cc1nc2ccc(Cl)cc2c(-n2ccnc2)c1CCn1ccnc1`: the GI50 was 15.7 µM (inactive) in the assay with ACHN; 63.1 µM (inactive) in the assay with CAKI-1; 49.8 µM (inactive) in the assay on HCC 2998; 22.7 µM in the assay with HCT-15; 33.3 µM (inactive) in the assay on HOP-62; 17.3 µM (inactive) in the assay with HT-29. Further, the GI50 in the assay with IGROV-1 is 26.1 µM (inactive); in the assay with M14, 27.8 µM (inactive); in the assay with MDA-N it was 25.5 µM (inactive); in the assay with Malme-3M, 31.1 µM (inactive); with NCI-H522, 22.4 µM (inactive); in the assay on NCI/ADR-RES, 2.03 µM (inactive). Moreover, the GI50 with OVCAR-8 is 1.75 µM (inactive); in the assay with SK-OV-3 it was 31 µM (inactive); with SN12C, 34 µM (inactive); with SNB-75, 20 µM (inactive); with SR it was 0.678 µM (active); in the assay on SW-620, 39.4 µM (inactive). For the same compound, the GI50 in the assay with UACC-257 was 18.8 µM (inactive); with UO-31, 14.5 µM (inactive).
Consider `CC(C)OC(=O)c1cc(NC(=S)OC(C)C)ccc1Cl`, for which the GI50 was 22.8 µM (inactive) in the assay with ACHN; 15.1 µM (inactive) in the assay with CAKI-1; > 41.6 µM (inactive) with HCC 2998; 21.6 µM in the assay on HCT-15; 90.4 µM (inactive) in the assay with HOP-62; 16.5 µM (inactive) in the assay with HT-29. Also, the GI50 in the assay on IGROV-1 was 28.8 µM (inactive); in the assay on M14, 35.6 µM (inactive); in the assay with MDA-N, 23.1 µM (inactive); in the assay with Malme-3M, 33.6 µM (inactive); in the assay on NCI-H522, 13.2 µM (inactive); in the assay with NCI/ADR-RES, 20.7 µM (inactive). Also, the GI50 is 26.4 µM (inactive) with OVCAR-8; 37 µM (inactive) in the assay on SK-OV-3; 13.4 µM (inactive) in the assay on SN12C; 19.6 µM (inactive) in the assay with SNB-75; 28.6 µM (inactive) in the assay on SR; 28.4 µM (inactive) in the assay with SW-620. For the same compound, the GI50 was 21.1 µM (inactive) in the assay with UACC-257 and 20.8 µM (inactive) with UO-31.
